From patent publication US5889029A, “Use of cotinine in treating psychiatric disorders” (priority 1997, dated 1999)
Where two headings read alike, the source gives them in different places.

Tests used:
Dopamine (D1 Central) = molecular target: T1, Dopamine (D1 Central) (Rattus norvegicus, UniProt P18901); assay: Dopamine (D1 Central) Binding Assay; conditions: Rat striatal membranes, [3H]SCH 23390 0.5 nM
T1 construct: Rat striatal membranes; from tissue; host or cells: rat striatal membranes

[1] = system: Serotonin (Non-Selective); assay: Serotonin (Non-Selective) Binding Assay; conditions: Rat cortical membranes, [3H]Lysergic acid diethylamide 5.0 nM
[2] = molecular target: T2, recombinant Rat 5HT7 Clone (Rattus norvegicus, UniProt P32305); assay: Serotonin--5HT7 Clone Binding Assay; conditions: [3H]LSD 2.0 nM, read-out: Receptor Binding Activity Percent Inhibition Average (N = 2)
T2 construct: expressed in transfected cells

[3] = cited from earlier work
[4] = in vivo, cited from earlier work
[5] = humans, cited from earlier work
[6] = molecular target: T3, Inositol Triphosphate (IP3) (Rattus norvegicus, UniProt P29994); assay: Inositol Triphosphate (IP3) Binding Assay; conditions: Rat cerebellar membranes, [3H]IP3 4.0 nM, read-out: Receptor Binding Activity Percent Inhibition Average (N = 2)
T3 construct: Rat cerebellar membranes; from tissue; host or cells: rat cerebellar membranes
Experimental: Tissue cultures were prepared using standard laboratory practice for the following tissues: human recombinant M1 clone, human recombinant M2 clone, guinea pig striatal membranes, rat cortical membranes, rat striatal membranes, rat forebrain membranes, bovine hippocampal membranes, guinea pig cerebellar membranes, rat kidney membranes, recombinant rat 5HT7 clone, and rat cerebellar membranes.
Inositol Triphosphate (IP3) Binding Assay
Rat cerebellar membranes
Radioligand: [^3 H]IP3 (10-30 Ci/mmol)
Final ligand concentration - [4.0 nM]
D-myo-inositol 1,4,5-triphosphate
Reactions are carried out in 50 mM TRIS-HCl (pH 8.3)
1 mM EDTA at 0° C. for 10 minutes. The reaction is
rapid vacuum filtration onto glass fiber filters.
onto the filters is determined and compared to control
order to ascertain any interactions of test compound with
inositol triphospate binding site.

[7] = molecular target: T4, Human recombinant M1 clone (Homo sapiens, UniProt P11229); assay: biochemical; format: binding
T4 construct: expressed in transfected cells
T4 sequence (P11229 1-460): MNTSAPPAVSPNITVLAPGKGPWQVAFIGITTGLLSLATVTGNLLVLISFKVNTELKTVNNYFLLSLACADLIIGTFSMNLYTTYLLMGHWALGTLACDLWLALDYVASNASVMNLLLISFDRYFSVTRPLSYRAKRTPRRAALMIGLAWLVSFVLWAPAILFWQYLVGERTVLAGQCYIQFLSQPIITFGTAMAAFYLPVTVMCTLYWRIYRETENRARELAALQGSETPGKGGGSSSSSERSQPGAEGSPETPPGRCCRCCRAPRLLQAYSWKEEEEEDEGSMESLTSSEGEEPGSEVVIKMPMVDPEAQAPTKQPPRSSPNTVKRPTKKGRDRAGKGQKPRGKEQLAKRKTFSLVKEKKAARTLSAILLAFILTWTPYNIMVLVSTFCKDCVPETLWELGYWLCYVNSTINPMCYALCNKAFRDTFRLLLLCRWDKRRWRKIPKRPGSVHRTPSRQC

[8] = read-out: Receptor Binding Activity Percent Inhibition Average (N = 2)

T3 sequence (P29994 whole entry): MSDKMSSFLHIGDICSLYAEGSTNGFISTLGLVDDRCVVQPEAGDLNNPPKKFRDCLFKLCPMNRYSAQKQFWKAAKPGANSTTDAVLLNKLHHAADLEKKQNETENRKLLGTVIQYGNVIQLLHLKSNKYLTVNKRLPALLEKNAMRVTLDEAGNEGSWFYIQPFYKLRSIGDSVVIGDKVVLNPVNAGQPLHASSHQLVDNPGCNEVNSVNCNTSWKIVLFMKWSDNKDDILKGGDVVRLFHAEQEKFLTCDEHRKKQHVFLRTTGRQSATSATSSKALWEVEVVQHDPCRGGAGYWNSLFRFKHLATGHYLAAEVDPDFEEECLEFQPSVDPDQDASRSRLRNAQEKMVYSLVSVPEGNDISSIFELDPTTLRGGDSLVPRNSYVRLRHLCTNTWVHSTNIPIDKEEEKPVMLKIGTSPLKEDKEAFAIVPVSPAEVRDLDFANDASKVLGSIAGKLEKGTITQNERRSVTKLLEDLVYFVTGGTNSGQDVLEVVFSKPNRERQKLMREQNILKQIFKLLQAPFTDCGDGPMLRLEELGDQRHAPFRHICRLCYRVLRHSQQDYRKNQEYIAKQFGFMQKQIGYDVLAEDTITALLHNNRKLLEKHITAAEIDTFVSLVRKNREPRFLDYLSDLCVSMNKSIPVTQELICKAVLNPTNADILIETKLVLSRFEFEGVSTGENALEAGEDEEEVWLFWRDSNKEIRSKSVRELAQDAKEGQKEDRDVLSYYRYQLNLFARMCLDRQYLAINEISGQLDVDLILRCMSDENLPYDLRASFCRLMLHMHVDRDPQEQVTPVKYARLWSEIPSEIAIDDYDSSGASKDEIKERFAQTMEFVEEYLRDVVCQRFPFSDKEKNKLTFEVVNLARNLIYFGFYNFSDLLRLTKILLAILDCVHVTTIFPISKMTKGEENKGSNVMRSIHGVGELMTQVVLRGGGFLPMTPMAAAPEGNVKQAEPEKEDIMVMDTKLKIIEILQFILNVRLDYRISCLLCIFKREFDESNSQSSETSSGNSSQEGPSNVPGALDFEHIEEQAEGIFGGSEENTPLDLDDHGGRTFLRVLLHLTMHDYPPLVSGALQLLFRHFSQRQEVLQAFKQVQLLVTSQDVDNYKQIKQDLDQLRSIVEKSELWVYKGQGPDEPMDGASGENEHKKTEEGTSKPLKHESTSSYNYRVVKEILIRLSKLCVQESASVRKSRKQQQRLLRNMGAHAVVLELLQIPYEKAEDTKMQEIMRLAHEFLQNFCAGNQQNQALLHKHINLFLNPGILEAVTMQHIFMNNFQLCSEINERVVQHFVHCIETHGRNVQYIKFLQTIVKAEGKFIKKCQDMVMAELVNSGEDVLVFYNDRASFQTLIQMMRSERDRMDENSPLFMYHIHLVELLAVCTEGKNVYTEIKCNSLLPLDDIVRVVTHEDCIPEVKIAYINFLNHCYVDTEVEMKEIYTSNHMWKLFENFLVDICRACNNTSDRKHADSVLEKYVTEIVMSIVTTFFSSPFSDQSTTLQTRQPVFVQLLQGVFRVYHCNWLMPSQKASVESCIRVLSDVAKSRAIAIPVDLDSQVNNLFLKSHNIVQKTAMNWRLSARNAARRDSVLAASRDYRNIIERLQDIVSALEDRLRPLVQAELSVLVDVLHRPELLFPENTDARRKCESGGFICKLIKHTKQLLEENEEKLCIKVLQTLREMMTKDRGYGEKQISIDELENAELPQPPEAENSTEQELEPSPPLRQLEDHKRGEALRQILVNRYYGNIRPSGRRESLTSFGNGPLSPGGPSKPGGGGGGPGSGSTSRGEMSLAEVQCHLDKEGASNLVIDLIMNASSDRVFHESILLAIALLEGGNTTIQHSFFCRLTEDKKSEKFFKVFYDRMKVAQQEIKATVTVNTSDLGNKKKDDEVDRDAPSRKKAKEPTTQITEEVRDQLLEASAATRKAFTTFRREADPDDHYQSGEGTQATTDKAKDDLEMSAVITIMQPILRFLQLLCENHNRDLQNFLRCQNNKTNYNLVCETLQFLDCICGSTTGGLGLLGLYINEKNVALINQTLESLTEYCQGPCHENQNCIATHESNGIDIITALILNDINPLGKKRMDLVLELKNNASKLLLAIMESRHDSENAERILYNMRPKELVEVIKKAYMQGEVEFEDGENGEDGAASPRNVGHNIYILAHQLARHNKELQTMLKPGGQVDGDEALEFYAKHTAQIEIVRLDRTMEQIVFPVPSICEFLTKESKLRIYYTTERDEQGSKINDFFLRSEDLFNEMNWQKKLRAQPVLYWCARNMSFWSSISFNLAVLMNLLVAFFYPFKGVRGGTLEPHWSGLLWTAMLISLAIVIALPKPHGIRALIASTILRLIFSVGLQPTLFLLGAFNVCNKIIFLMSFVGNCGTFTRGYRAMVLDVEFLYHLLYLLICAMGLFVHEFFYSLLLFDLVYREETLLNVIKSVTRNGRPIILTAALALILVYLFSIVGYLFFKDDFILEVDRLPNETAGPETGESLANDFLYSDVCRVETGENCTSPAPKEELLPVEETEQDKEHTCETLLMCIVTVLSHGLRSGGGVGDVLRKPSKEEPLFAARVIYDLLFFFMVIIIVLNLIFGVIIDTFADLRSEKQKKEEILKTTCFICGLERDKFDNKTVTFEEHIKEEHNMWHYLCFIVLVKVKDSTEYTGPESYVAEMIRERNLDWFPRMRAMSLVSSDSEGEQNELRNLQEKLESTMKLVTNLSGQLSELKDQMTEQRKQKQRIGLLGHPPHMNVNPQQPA
T1 sequence (P18901 whole entry): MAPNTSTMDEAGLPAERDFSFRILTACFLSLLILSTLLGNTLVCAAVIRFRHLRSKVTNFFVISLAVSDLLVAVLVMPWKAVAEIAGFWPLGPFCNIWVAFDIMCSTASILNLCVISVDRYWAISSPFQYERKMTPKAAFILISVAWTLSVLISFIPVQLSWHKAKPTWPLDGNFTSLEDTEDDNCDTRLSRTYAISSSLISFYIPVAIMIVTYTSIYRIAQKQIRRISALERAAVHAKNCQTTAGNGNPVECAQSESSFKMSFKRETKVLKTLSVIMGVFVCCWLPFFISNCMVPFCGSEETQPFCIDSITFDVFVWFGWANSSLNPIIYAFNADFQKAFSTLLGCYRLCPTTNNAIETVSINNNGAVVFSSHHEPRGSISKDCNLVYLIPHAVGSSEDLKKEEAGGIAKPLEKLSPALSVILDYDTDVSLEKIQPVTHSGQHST
T2 sequence (P32305 whole entry): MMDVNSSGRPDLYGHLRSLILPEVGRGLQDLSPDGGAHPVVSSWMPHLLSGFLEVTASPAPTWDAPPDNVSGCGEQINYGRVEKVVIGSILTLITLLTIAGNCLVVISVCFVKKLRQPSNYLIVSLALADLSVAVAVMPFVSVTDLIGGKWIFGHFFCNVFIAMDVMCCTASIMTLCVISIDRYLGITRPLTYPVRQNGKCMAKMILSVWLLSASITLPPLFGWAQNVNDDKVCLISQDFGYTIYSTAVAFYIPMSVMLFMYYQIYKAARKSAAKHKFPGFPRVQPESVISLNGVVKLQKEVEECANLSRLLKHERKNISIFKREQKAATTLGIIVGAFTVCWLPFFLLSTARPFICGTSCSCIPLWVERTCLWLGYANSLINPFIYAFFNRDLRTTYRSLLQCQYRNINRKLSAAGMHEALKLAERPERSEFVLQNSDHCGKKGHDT

## CN1C(=O)CCC1c1cccnc1 (single isomer, unassigned) [Cotinine, 1-methyl-5-(3-pyridinyl)-2-pyrrolidionone]
Dopamine (D1 Central); 10^-4 M
  Receptor Binding Activity Percent Inhibition Average (N = 2): 3.3%
Dopamine (D1 Central); 10^-6 M
  Receptor Binding Activity Percent Inhibition Average (N = 2): 2.9%
[1]; 10^-4 M
  Receptor Binding Activity Percent Inhibition Average (N = 2): 12.1%
[1]; 10^-6 M
  Receptor Binding Activity Percent Inhibition Average (N = 2): 4.6%
[2]; 10^-4 M
  inhibition at 100 µM: 6.4%
[2]; 10^-6 M
  inhibition at 1 µM: -0.3%
[3]; humans
  amount present in the blood without producing deleterious effects: ~18,000 ng/ml
[3]; in vivo
  effect on the cardiovascular system: minimal effect
[3]; many species, including man
  harm at very high doses: has not been reported to be harmful
[4]
  passage of the blood-brain barrier: pass the blood-brain barrier
[4]; listed as cotinine
  passage of the blood-brain barrier: capable of passing the blood-brain barrier
[5]; intravenous infusion over 60 minutes
  cardiovascular changes: no cardiovascular changes
[5]; intravenous infusion over 60 minutes, comparable to placebo-induced changes
  subjective ratings of desire to smoke, irritability, low energy and anxiety/tension: significant decreases
[5]; rapid infusion over 5 minutes
  subjective ratings: no significant changes
[6]; 10^-4 M
  inhibition at 100 µM: 8.3%
[6]; 10^-6 M
  inhibition at 1 µM: 4.8%
[7]
  effectiveness in binding relative to an equal concentration of nicotine, binding expressed as percent inhibition: about 19 times
[7]; [8]
  inhibition at 1 µM: 15.5%
  inhibition at 100 µM: 19.5%
